# Columns and labels:
# [1] = test system: myocardial infarct size in IR injury; parameters: protection against IR injury (TTC stained cross-sections): dose or concentration left out as unconfirmed; details: for protection against IR injury (TTC stained cross-sections): single IV bolus at reperfusion
# [2] = target: heart ATP synthase (complex V) (Mus musculus, UniProt P56480); assay: respiration of mitochondria isolated from mouse heart (ATP synthase / complex V inhibition)
# [3] = test system: electron flow through the ETC (Complex I, II, IV); assay: electron flow through the ETC, OCR of isolated mouse heart mitochondria; assay type: biochemical
smiles,measurement,setting,value
CC[C@H]1/C=C/C=C/C[C@@H](C)[C@H](O)[C@@](C)(O)C(=O)[C@@H](C)[C@H](O)[C@@H](C)C(=O)[C@@H](C)[C@H](O)[C@@H](C)/C=C/C(=O)O[C@@H]2[C@H](C)[C@H](CC1)O[C@]1(CC[C@H](C)[C@H](C[C@@H](C)O)O1)[C@H]2C [oligomycin],toxicity,"[1]; 5 μM, administered at the time of reperfusion",toxic
same,myocardial infarct size,"[1]; lower doses (e.g., 10 nM) given at reperfusion",significantly reduce myocardial infarct size
O=C(O)CCC(=O)O [succinate],protection against IR injury (TTC stained cross-sections),[1],does not
CC(C)(COP(=O)(O)OP(=O)(O)OC[C@H]1O[C@@H](n2cnc3c(N)ncnc32)[C@H](O)[C@@H]1OP(=O)(O)O)[C@@H](O)C(=O)NCCC(=O)NCCSC(=O)CCC(=O)O [succinyl-CoA],protection against IR injury (TTC stained cross-sections),[1],significant protection
"O=C(O)CCC(=O)C(=O)O [α-KG, α-ketoglutarate]",complex V activity,[2]; […],inhibits
same,state 3 respiration,[2]; initiated by 2 mM ADP,decreases
same,reduction of infarct size,"[1]; mouse, in vivo",about 70%
same,protection in the presence of the HIF-1 inhibitor echinomycin,"[1]; mouse, in vivo, iv",fully protective
same,electron flow through the ETC,[3]; isolated mouse heart mitochondria,does not affect
same,"Complex I, Complex II, or Complex IV respiration","[3]; sequential rotenone, succinate, antimycin A, TMPD",No difference
